Results from US9487510B2, “Substituted heterocyclic acetamides as kappa opioid receptor (KOR) agonists” (Dr. Reddy's Laboratories Ltd., priority 2012, dated 2016).

Molecular target: human KOR receptor (Homo sapiens, UniProt P41145)
Assay: IP-One HTRF assay, potency of KOR agonists, dose-response in transiently transfected COS-7 cells
Assay type: cell-based

Sequence of human KOR receptor (P41145 whole entry): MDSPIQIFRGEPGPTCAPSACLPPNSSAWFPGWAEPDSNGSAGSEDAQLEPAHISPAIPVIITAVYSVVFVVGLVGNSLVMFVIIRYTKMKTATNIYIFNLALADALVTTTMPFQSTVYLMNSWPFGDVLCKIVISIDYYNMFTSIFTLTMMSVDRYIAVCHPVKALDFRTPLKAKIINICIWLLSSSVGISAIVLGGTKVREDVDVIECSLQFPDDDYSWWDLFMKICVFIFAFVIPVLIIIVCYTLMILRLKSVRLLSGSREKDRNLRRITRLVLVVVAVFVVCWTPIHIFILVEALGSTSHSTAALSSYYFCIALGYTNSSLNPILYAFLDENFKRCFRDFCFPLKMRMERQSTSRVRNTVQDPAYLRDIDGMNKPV

Row | SMILES | EC50 [nM]
1 | CN(C(=O)Cc1ccc2c(c1)NC(=O)CS2)[C@H](CN1CC[C@H](O)C1)c1cccc(C(F)(F)F)c1 [Example 132, N-((S)-2-((S)-3-hydroxypyrrolidin-1-yl)-1-(3-(trifluoromethyl)phenyl)ethyl)-N-methyl-2-(3-oxo-3,4-dihydro-2H-benzo[b][1,4]thiazin-6-yl)acetamide] | ≤ 50
2 | CN(C(=O)Cc1ccc2c(c1)NC(=O)CS2)[C@H](CN1CC[C@H](O)C1)c1cccc(F)c1 [Example 133, N-((S)-1-(3-fluorophenyl)-2-((S)-3-hydroxypyrrolidin-1-yl)ethyl)-N-methyl-2-(3-oxo-3,4-dihydro-2H-benzo[b][1,4]thiazin-6-yl)acetamide] | ≤ 50
3 | CN(C(=O)Cc1ccc2c(c1)NC(=O)CS2)[C@H](CN1CC[C@H](O)C1)c1cccc(OC(F)(F)F)c1 [Example 134, N-((S)-2-((S)-3-hydroxypyrrolidin-1-yl)-1-(3-(trifluoromethoxy)phenyl)ethyl)-N-methyl-2-(3-oxo-3,4-dihydro-2H-benzo[b][1,4]thiazin-6-yl)acetamide] | ≤ 50
4 | CN(C(=O)Cc1ccc2c(c1)N(Cc1ccccc1)S(=O)(=O)C2)[C@H](CN1CC[C@H](O)C1)c1ccccc1 [Example 135, 2-(1-benzyl-2,2-dioxido-1,3-dihydrobenzo[c]isothiazol-6-yl)-N-((S)-2-((S)-3-hydroxypyrrolidin-1-yl)-1-phenylethyl)-N-methylacetamide] | ≤ 50
5 | CCCN(C(=O)Cc1ccc2c(c1)NC(=O)CS2(=O)=O)[C@H](CN1CC[C@H](O)C1)c1cccc(OC(F)(F)F)c1 [Example 137, 2-(1,1-dioxido-3-oxo-3,4-dihydro-2H-benzo[b][1,4]thiazin-6-yl)-N-((S)-2-((S)-3-hydroxypyrrolidin-1-yl)-1-(3-(trifluoromethoxy)phenyl)ethyl)-N-propylacetamide] | ≤ 50
6 | CC(C)N(C(=O)Cc1ccc2c(c1)NC(=O)CS2(=O)=O)[C@H](CN1CC[C@H](O)C1)c1cccc(OC(F)(F)F)c1 [Example 138, 2-(1,1-dioxido-3-oxo-3,4-dihydro-2H-benzo[b][1,4]thiazin-6-yl)-N-((S)-2-((S)-3-hydroxypyrrolidin-1-yl)-1-(3-(trifluoromethoxy)phenyl)ethyl)-N-isopropylacetamide] | 51 to 100
7 | O=C1CS(=O)(=O)c2ccc(CC(=O)N(C3CC3)[C@H](CN3CC[C@H](O)C3)c3cccc(OC(F)(F)F)c3)cc2N1 [Example 139] | ≤ 50
8 | CN(C(=O)Cc1ccc2c(c1)NC(=O)C(C)(C)S2)[C@H](CN1CC[C@H](O)C1)c1cccc(OC(F)(F)F)c1 [Example 143, 2-(2,2-dimethyl-3-oxo-3,4-dihydro-2H-benzo[b][1,4]thiazin-6-yl)-N-((S)-2-((S)-3-hydroxypyrrolidin-1-yl)-1-(3-(trifluoromethoxy)phenyl)ethyl)-N-methylacetamide] | ≤ 50
9 | CN(C(=O)Cc1ccc2c(c1)NC(=O)CS2(=O)=O)[C@H](CN1CC[C@H](O)C1)c1cccc(OCC(F)(F)F)c1 [Example 144, 2-(1,1-dioxido-3-oxo-3,4-dihydro-2H-benzo [b][1,4]thiazin-6-yl)-N-((S)-2-((S)-3-hydroxypyrrolidin-1-yl)-1-(3-(2,2,2-trifluoroethoxy)phenyl)ethyl)-N-methylacetamide] | ≤ 50
10 | Cc1cccc([C@@H](CN2CC[C@H](O)C2)N(C)C(=O)Cc2ccc3c(c2)NC(=O)CS3(=O)=O)c1 [Example 145, 2-(1,1-dioxido-3-oxo-3,4-dihydro-2H-benzo [b][1,4]thiazin-6-yl)-N-((S)-2-((S)-3-hydroxypyrrolidin-1-yl)-1-(m-tolyl)ethyl)-N-methylacetamide] | ≤ 50
11 | CN(C(=O)Cc1ccc2c(c1)NC(=O)CS2(=O)=O)[C@H](CN1CC[C@H](O)C1)c1ccc(F)c(OC(F)(F)F)c1 [Example 146, 2-(1,1-dioxido-3-oxo-3,4-dihydro-2H-benzo[b][1,4]thiazin-6-yl)-N-((S)-1-(4-fluoro-3-(trifluoromethoxy)phenyl)-2-((S)-3-hydroxypyrrolidin-1-yl)ethyl)-N-methylacetamide] | ≤ 50
12 | CN(C(=O)Cc1ccc2c(c1)NC(=O)C(C)(C)S2(=O)=O)[C@H](CN1CC[C@H](O)C1)c1cccc(OC(F)(F)F)c1 [Example 148, 2-(2,2-dimethyl-1,1-dioxido-3-oxo-3,4-dihydro-2H-benzo[b][1,4]thiazin-6-yl)-N-((S)-2-((S)-3-hydroxypyrrolidin-1-yl)-1-(3-(trifluoromethoxy)phenyl)ethyl)-N-methylacetamide] | ≤ 50
13 | CN(C(=O)Cc1ccc2c(c1)NC(=O)CS2(=O)=O)[C@H](CN1CC[C@H](O)C1)c1cc(F)cc(OCC(F)(F)F)c1 [Example 149, 2-(1,1-dioxido-3-oxo-3,4-dihydro-2H-benzo[b][1,4]thiazin-6-yl)-N-((S)-1-(3-fluoro-5-(2,2,2-trifluoroethoxy)phenyl)-2-((S)-3-hydroxypyrrolidin-1-yl)ethyl)-N-methylacetamide] | ≤ 50
14 | CN(C(=O)Cc1ccc2c(c1)NC(=O)CS2)[C@H](CN1CC[C@H](O)C1)c1cccc(C#N)c1 [Example 152, N-((S)-1-(3-cyanophenyl)-2-((S)-3-hydroxypyrrolidin-1-yl)ethyl)-N-methyl-2-(3-oxo-3,4-dihydro-2H-benzo[b][1,4]thiazin-6-yl)acetamide] | ≤ 50
15 | CN(C(=O)Cc1ccc2c(c1)NC(=O)CO2)[C@H](CN1CC[C@H](O)C1)c1cccc(C#N)c1 [Example 153, N-((S)-1-(3-cyanophenyl)-2-((S)-3-hydroxypyrrolidin-1-yl)ethyl)-N-methyl-2-(3-oxo-3,4-dihydro-2H-benzo[b][1,4]oxazin-6-yl)acetamide] | ≤ 50
16 | CN(C(=O)Cc1ccc2c(c1)NC(=O)CS2)[C@H](CN1CC[C@H](O)C1)c1cccc(C(=O)O)c1 [Example 154, 3-((S)-2-((S)-3-hydroxypyrrolidin-1-yl)-1-(N-methyl-2-(3-oxo-3,4-dihydro-2H-benzo[b][1,4]thiazin-6-yl)acetamido)ethyl)benzoic acid] | ≤ 50
17 | CN(C(=O)Cc1ccc2c(c1)NC(=O)CO2)[C@H](CN1CC[C@H](O)C1)c1cccc(C(=O)O)c1 [Example 155, 3-((S)-2-((S)-3-hydroxypyrrolidin-1-yl)-1-(N-methyl-2-(3-oxo-3,4-dihydro-2H-benzo[b][1,4]oxazin-6-yl)acetamido)ethyl)benzoic acid] | ≤ 50
18 | CN(C(=O)Cc1ccc2c(c1)NC(=O)C2)[C@H](CN1CC[C@H](O)C1)c1cccc(C#N)c1 [Example 156, N-((S)-1-(3-cyanophenyl)-2-((S)-3-hydroxypyrrolidin-1-yl)ethyl)-N-methyl-2-(2-oxoindolin-6-yl)acetamide] | ≤ 50
19 | O=C1Cc2cc(CC(=O)N[C@H](CN3CC[C@H](O)C3)c3ccccc3)ccc2N1 [Example 157, N-((S)-2-((S)-3-hydroxypyrrolidin-1-yl)-1-phenylethyl)-2-(2-oxoindolin-5yl)acetamide] | ≤ 50
20 | CN(C(=O)Cc1ccc2c(c1)NC(=O)C2)[C@H](CN1CC[C@H](O)C1)c1cccc(OCC(=O)O)c1 [Example 159, 2-(3-((S)-2-((S)-3-hydroxypyrrolidin-1-yl)-1-(N-methyl-2-(2-oxoindolin-6-yl)acetamido)ethyl)phenoxy)acetic acid] | ≤ 50
